ChEMBL document CHEMBL3871284, “Structure-activity relationship-based screening of antibiotics against Gram-negative Acinetobacter baumannii” (Bioorg Med Chem, 2017)
≈ marks a conversion by molar mass, not a printed value. Calls of active or inactive are those of the source. The rule behind the calls is not given here.

What was measured:
Pseudomonas aeruginosa [1] = assay: Antimicrobial activity against multidrug resistant Pseudomonas aeruginosa CCARM 2095 after 16 hrs by broth microdilution assay; type: functional; details: CCARM 2095, 16 h
RAW264.7 = assay: Antiinflammatory activity in mouse RAW264.7 cells assessed as inhibition of LPS-stimulated NO production at 10 to 20 uM after 24 hrs in presence of LPS; type: functional, cell-based
Escherichia coli [2] = assay: Antimicrobial activity against multidrug resistant Escherichia coli CCARM 1229 after 16 hrs by broth microdilution assay; type: functional; details: CCARM 1229, 16 h
Escherichia coli [3] = assay: Antimicrobial activity against Escherichia coli KCTC 1682 after 16 hrs by broth microdilution assay; type: functional; details: KCTC 1682, 16 h
[4] = Antiinflammatory activity in mouse RAW264.7 cells assessed as inhibition of LPS-stimulated IL1beta mRNA expression at 10 uM after 3 hrs in presence of LPS by RT-PCR analysis; type: functional; details: RAW264.7, 3 h
Pseudomonas aeruginosa [5] = assay: Antimicrobial activity against multidrug resistant Pseudomonas aeruginosa CCARM 2163 after 16 hrs by broth microdilution assay; type: functional; details: CCARM 2163, 16 h
Pseudomonas aeruginosa [6] = assay: Antimicrobial activity against Pseudomonas aeruginosa KCTC 1637 after 16 hrs by broth microdilution assay; type: functional; details: KCTC 1637, 16 h
[7] = Binding affinity to Acinetobacter baumannii His-tagged KAS3 expressed in Escherichia coli BL21(DE3) by isothermal titration calorimetry assay
Acinetobacter baumannii [8] = assay: Antimicrobial activity against multidrug resistant Acinetobacter baumannii CCARM 12036 after 16 hrs by broth microdilution assay; type: functional; details: CCARM 12036, 16 h
Acinetobacter baumannii [9] = assay: Antimicrobial activity against multidrug resistant Acinetobacter baumannii CCARM 12035 after 16 hrs by broth microdilution assay; type: functional; details: CCARM 12035, 16 h
Escherichia coli [10] = assay: Antimicrobial activity against multidrug resistant Escherichia coli CCARM 1238 after 16 hrs by broth microdilution assay; type: functional; details: CCARM 1238, 16 h
Acinetobacter baumannii [11] = assay: Antimicrobial activity against multidrug resistant Acinetobacter baumannii CCARM 12037 after 16 hrs by broth microdilution assay; type: functional; details: CCARM 12037, 16 h
[12] = Antiinflammatory activity in mouse RAW264.7 cells assessed as inhibition of LPS-stimulated MIP1 mRNA expression at 10 uM after 3 hrs in presence of LPS by RT-PCR analysis; type: functional; details: RAW264.7, 3 h
[13] = Antiinflammatory activity in mouse RAW264.7 cells assessed as inhibition of LPS-stimulated MIP2 mRNA expression at 10 uM after 3 hrs in presence of LPS by RT-PCR analysis; type: functional; details: RAW264.7, 3 h
Staphylococcus aureus [14] = assay: Antimicrobial activity against Methicillin-resistant Staphylococcus aureus isolate 3114 after 16 hrs by broth microdilution assay; type: functional; details: isolate 3114, 16 h
[15] = Binding affinity to Acinetobacter baumannii His-tagged KAS3 expressed in Escherichia coli BL21(DE3) by tryptophan emission assay
Bacillus subtilis = assay: Antimicrobial activity against Bacillus subtilis after 16 hrs by broth microdilution assay; type: functional
[16] = Antiinflammatory activity in mouse RAW264.7 cells assessed as inhibition of LPS-stimulated IL6 mRNA expression at 10 uM after 3 hrs in presence of LPS by RT-PCR analysis; type: functional; details: RAW264.7, 3 h
Pseudomonas aeruginosa [17] = assay: Antimicrobial activity against multidrug resistant Pseudomonas aeruginosa CCARM 2002 after 16 hrs by broth microdilution assay; type: functional; details: CCARM 2002, 16 h
[18] = Antiinflammatory activity in mouse RAW264.7 cells assessed as inhibition of LPS-stimulated TNFalpha mRNA expression at 10 uM after 3 hrs in presence of LPS by RT-PCR analysis; type: functional; details: RAW264.7, 3 h
Staphylococcus aureus [19] = assay: Antimicrobial activity against Staphylococcus aureus after 16 hrs by broth microdilution assay; type: functional
[20] = Antiinflammatory activity in mouse RAW264.7 cells assessed as inhibition of LPS-stimulated iNOS mRNA expression at 10 uM after 3 hrs in presence of LPS by RT-PCR analysis; type: functional; details: RAW264.7, 3 h
Acinetobacter baumannii [21] = assay: Antimicrobial activity against Acinetobacter baumannii KCTC 2508 after 16 hrs by broth microdilution assay; type: functional; details: KCTC 2508, 16 h
Staphylococcus aureus [22] = assay: Antimicrobial activity against Methicillin-resistant Staphylococcus aureus 3126 after 16 hrs by broth microdilution assay; type: functional; details: Staphylococcus aureus, 3126, 16 h
Acinetobacter baumannii [23] = assay: Antimicrobial activity against multidrug resistant Acinetobacter baumannii CCARM 12005 after 16 hrs by broth microdilution assay; type: functional; details: CCARM 12005, 16 h
[24] = system: Staphylococcus epidermidis; assay: Antimicrobial activity against Staphylococcus epidermidis after 16 hrs by broth microdilution assay; type: functional

Structure (SMILES)	MIC (Pseudomonas aeruginosa [1]) [µg/mL]	MIC (Escherichia coli [2]) [µg/mL]	MIC (Escherichia coli [3]) [µg/mL]	MIC (Pseudomonas aeruginosa [5]) [µg/mL]	MIC (Pseudomonas aeruginosa [6]) [µg/mL]	MIC (Acinetobacter baumannii [8]) [µg/mL]	MIC (Acinetobacter baumannii [9]) [µg/mL]	MIC (Escherichia coli [10]) [µg/mL]	MIC (Acinetobacter baumannii [11]) [µg/mL]	MIC (Staphylococcus aureus [14]) [µg/mL]	Kd [15] [µM]	MIC (Bacillus subtilis) [µg/mL]	MIC (Pseudomonas aeruginosa [17]) [µg/mL]	MIC (Staphylococcus aureus [19]) [µg/mL]	MIC (Acinetobacter baumannii [21]) [µg/mL]	MIC (Staphylococcus aureus [22]) [µg/mL]	MIC (Acinetobacter baumannii [23]) [µg/mL]	MIC [24] [µg/mL]	further results
Cc1ccc(/C=N/NCc2ccc(O)cc2O)cc1Cl	32 (≈ 110 µM)	> 32	32 (≈ 110 µM)	32 (≈ 110 µM)	4 (≈ 13.8 µM)	2 (≈ 6.88 µM)	2 (≈ 6.88 µM)	> 32	2 (≈ 6.88 µM)	32 (≈ 110 µM)	0.916	16 (≈ 55 µM)	> 32	8 (≈ 27.5 µM)	2 (≈ 6.88 µM)	> 32	4 (≈ 13.8 µM)	8 (≈ 27.5 µM)	inhibition (RAW264.7): Active; inhibition at 10 µM [4]: 10.3%; Kd [7]: 0.197 µM; inhibition at 10 µM [12]: > 70%; inhibition at 10 µM [13]: > 70%; inhibition at 10 µM [16]: 50.6%; inhibition at 10 µM [18]: > 70%; inhibition at 10 µM [20]: > 70%
COc1ccc(/C=N/NCc2ccc(C(F)(F)F)cc2)c(O)c1	> 32	> 32	> 32	> 32	> 32	> 32	> 32	> 32	> 32	> 32	22	> 32	> 32	> 32	> 32	> 32	> 32	> 32	
COc1ccc(/C=N/NCc2ccc(C)cc2)c(O)c1	> 32	> 32	> 32	> 32	> 32	> 32	> 32	> 32	> 32	> 32	> 100	> 32	> 32	> 32	> 32	> 32	> 32	> 32	
COc1ccc(/C=N/NCc2ccc(C(=O)O)cc2)c(OC)c1	> 32	> 32	> 32	> 32	> 32	> 32	> 32	> 32	> 32	> 32	72.5	> 32	> 32	> 32	> 32	> 32	> 32	> 32	
Oc1cccc(Br)c1/C=N/NCc1cccc(C(F)(F)F)c1	> 32	> 32	> 32	> 32	> 32	> 32	> 32	> 32	> 32	> 32	> 100	> 32	> 32	> 32	> 32	> 32	> 32	> 32	
CCCOc1ccc(/C=N/NCc2ccc(C(F)(F)F)cc2)c(O)c1	> 32	> 32	> 32	> 32	> 32	> 32	> 32	> 32	> 32	> 32	28.8	> 32	> 32	> 32	> 32	> 32	> 32	> 32	
Oc1ccc(/C=N/NCc2ccc(C(F)(F)F)cc2)c(O)c1	> 32	> 32	> 32	> 32	> 32	16 (≈ 51.6 µM)	16 (≈ 51.6 µM)	> 32	16 (≈ 51.6 µM)	4 (≈ 12.9 µM)	0.596	4 (≈ 12.9 µM)	> 32	2 (≈ 6.45 µM)	16 (≈ 51.6 µM)	8 (≈ 25.8 µM)	8 (≈ 25.8 µM)	16 (≈ 51.6 µM)	
COc1ccccc1/C=N/NCc1ccc(C(=O)O)cc1	> 32	> 32	> 32	> 32	> 32	> 32	> 32	> 32	> 32	> 32	20.2	> 32	> 32	> 32	> 32	> 32	> 32	> 32	
COc1ccc(O)c(/C=N/NCc2cccc(C(F)(F)F)c2)c1	> 32	> 32	> 32	> 32	> 32	> 32	> 32	> 32	> 32	> 32	> 100	> 32	> 32	> 32	> 32	> 32	> 32	> 32	
CCOc1ccc(/C=N/NCc2ccc(Cl)c(Cl)c2)c(O)c1	> 32	> 32	> 32	> 32	> 32	> 32	> 32	> 32	> 32	> 32	> 100	> 32	> 32	> 32	> 32	> 32	> 32	> 32	
CCCOc1ccc(/C=N/NCc2ccc3ccccc3c2)c(O)c1	> 32	> 32	> 32	> 32	> 32	> 32	> 32	> 32	> 32	> 32	21.7	> 32	> 32	> 32	> 32	> 32	> 32	> 32	
Oc1ccc(/C=N/NCc2cccc(C(F)(F)F)c2)cc1	> 32	> 32	32 (≈ 109 µM)	> 32	32 (≈ 109 µM)	16 (≈ 54.4 µM)	16 (≈ 54.4 µM)	> 32	16 (≈ 54.4 µM)	> 32	0.22	32 (≈ 109 µM)	> 32	32 (≈ 109 µM)	8 (≈ 27.2 µM)	> 32	16 (≈ 54.4 µM)	32 (≈ 109 µM)	inhibition (RAW264.7): Active; inhibition at 10 µM [4]: 63.5%; Kd [7]: 0.127 µM; inhibition at 10 µM [12]: > 70%; inhibition at 10 µM [13]: > 70%; inhibition at 10 µM [16]: 50.6%; inhibition at 10 µM [18]: > 70%; inhibition at 10 µM [20]: > 70%
